Data on 23 compounds can be found in patent US7300950B2, “Pyrazole derivatives, their preparation and their use in pharmaceuticals” (Aventis Pharma Deutschland GmbH, priority 1997, dated 2007).

Data set [1] concerns the target T1, soluble guanylate cyclase (sGC) isolated from bovine lung (Bos taurus, UniProt P16068+P19687).
T1 construct: The sGC which was employed had been isolated from bovine lung; from tissue; host or cells: bovine lung
T1 sequence (P16068 1-619): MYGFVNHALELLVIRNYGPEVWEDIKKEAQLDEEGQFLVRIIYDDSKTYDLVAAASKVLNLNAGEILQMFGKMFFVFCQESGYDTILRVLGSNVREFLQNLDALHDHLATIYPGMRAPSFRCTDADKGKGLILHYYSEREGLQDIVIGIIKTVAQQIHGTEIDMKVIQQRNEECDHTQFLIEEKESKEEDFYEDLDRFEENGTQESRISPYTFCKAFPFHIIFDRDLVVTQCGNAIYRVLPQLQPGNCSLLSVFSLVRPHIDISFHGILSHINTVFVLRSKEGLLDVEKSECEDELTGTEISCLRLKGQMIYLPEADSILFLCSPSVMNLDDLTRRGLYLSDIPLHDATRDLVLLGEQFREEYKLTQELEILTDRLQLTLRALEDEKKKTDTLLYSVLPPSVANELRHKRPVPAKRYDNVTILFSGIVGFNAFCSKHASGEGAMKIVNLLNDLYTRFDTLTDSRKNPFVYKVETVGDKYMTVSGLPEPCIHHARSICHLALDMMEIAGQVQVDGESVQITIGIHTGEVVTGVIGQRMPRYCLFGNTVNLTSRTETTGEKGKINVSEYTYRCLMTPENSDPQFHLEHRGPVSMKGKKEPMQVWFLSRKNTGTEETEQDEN
T1 sequence (P19687 1-691): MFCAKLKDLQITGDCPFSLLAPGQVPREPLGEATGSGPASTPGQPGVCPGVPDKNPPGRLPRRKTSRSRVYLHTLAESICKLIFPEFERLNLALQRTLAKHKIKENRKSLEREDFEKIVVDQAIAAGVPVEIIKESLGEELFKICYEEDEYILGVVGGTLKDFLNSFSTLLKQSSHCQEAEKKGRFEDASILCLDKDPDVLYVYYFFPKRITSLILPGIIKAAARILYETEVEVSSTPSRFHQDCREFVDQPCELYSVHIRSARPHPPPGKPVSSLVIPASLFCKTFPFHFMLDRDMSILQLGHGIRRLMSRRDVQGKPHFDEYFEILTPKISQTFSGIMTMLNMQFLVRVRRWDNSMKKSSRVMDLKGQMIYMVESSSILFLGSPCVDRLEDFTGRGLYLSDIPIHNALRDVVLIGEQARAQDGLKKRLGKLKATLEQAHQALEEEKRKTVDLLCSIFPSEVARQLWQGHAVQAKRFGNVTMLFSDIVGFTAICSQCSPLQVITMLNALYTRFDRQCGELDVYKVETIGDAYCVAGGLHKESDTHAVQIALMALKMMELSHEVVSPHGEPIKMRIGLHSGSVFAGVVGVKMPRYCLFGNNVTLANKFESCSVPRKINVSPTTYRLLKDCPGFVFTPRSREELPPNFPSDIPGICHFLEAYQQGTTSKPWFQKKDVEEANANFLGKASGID
In words: Activation of the soluble guanylate cyclase (cGMP enzyme immunoassay). In kind it is biochemical. Conditions: n-fold stimulation of basal enzyme activity = [cGMP]test substance/[cGMP]control. The protocol:
1. Activation of the Soluble Guanylate Cyclase
The activation of the sGC, which catalyzes the conversion of GTP into cyclic guanosine monophosphate cGMP and pyrophosphate, by the compounds according to the invention was quantified with the aid of an enzyme immunoassay “EIA” from Amersham. For this purpose the substances to be tested were initially incubated with sGC in microtiter plates, and the amount of the cGMP formed was then determined.
The test solutions (100 μl per well) contained 50 mM triethanolamine “TEA” buffer (pH 7.5), 3 mM MgCl2, 3 mM reduced glutathione “GSH,” 0.1 mM GTP, 1 mM 3-isobutyl-1-methylxanthine “IBMX,” suitably diluted enzyme solution and the substance to be tested or, in the control experiments, the solvent. […] The DMSO concentration in the test solution was 5% (v/v). The reaction was initiated by addition of the sGC. The reaction mixture was incubated at 37° C. for 15 to 20 minutes and then stopped by ice-cooling and addition of the stop reagent (50 mM EDTA, pH 8.0). An aliquot of 50 μl was taken and used for determining the cGMP content using the acetylation protocol of the Amersham cGMP-EIA kit. The absorption of the samples was measured at 450 nm (reference wavelength 620 nm) in a microtiter plate reader. The cGMP concentration was determined using a standard curve which was obtained under the same test conditions. […] This is calculated using the formula: n-fold stimulation=[cGMP]test substance/[cGMP]control.

Data set [2] has as its system rat aorta rings. Description: Relaxation of rat aorta (phenylephrine-precontracted aorta rings, organ bath). Details: species or system rat (Wistar-Kyoto). The conditions noted are these: concentration by which phenylephrine (1 μM) contraction is inhibited by 50% (50% relaxation). An excerpt:
2. Relaxation of Rat Aorta
For this test, normotensive male Wistar-Kyoto rats were sacrificed by a blow to the neck. The abdominal cavity and the thorax were opened by a medium sternotomy. The descending aorta was subsequently removed, freed of connective tissue and divided into 8 rings of a length of approximately 4 mm. The tip of a pair of tweezers was introduced into the lumen of 4 of the 8 rings. The endothelium was removed by carefully rolling the rings over the tip of the pair of tweezers. All 8 aorta rings (4 with endothelium and 4 without endothelium) were subsequently suspended in an organ bath (Schuler-Organbad; Hugo Sachs Elektronik) at a constant temperature of 37° C. for the isometric determination of the contractile tone. For 30 minutes, the rings were calibrated at a resting tension of 1 g in carbonated (95% O2; 5% CO2) Krebs-Henseleit solution (composition: Na^+ 144.0 mM; K^+ 5.9 mM; Cl^− 126.9 mM; Ca^2+ 1.6 mM; Mg^2+ 1.2 mM; H2PO4^− 1.2 mM; SO4^2− 1.2 mM; HCO3^− 25.0 mM; D-glucose 11.1 mM) of pH 7.4. […] After a 30-minute washing period, the rings were then again precontracted by addition of phenylephrine (1 μM), and the relaxing action of the test substances of the formula I was determined by administration of cumulative doses of the latter. The data were evaluated by standard methods. […]

On to `O=C(NOCc1ccccc1)c1ccc(-c2nn(Cc3ccccc3)c3ccccc23)o1` [Example 26, 1-Benzyl-3-(5-(N-(benzyloxy)carbamoyl)-2-furyl)indazole], for which the melting point was in the range of 140 to 143 °C.

With `O=C(Nc1ccc(Cl)cc1)c1ccc(-c2nn(Cc3ccccc3)c3ccccc23)o1` [Example 22, 1-Benzyl-3-(5-(N-(4-chlorophenyl)carbamoyl)-2-furyl)indazole], the melting point was 202 to 205 °C.

In turn, `O=C(NCc1ccccn1)c1ccc(-c2nn(Cc3ccccc3)c3ccccc23)o1` [Example 38, 1-Benzyl-3-(5-(N-(2-pyridylmethyl)carbamoyl)-2-furyl)indazole] registered a melting point of 160 °C.

Consider `COc1ccc(NC(=O)c2ccc(-c3nn(Cc4ccccc4)c4ccccc34)o2)cc1` [Example 28, 1-Benzyl-3-(5-(N-(4-methoxyphenyl)carbamoyl)-2-furyl)indazole], for which the melting point stood at 175 °C.

Compound `O=C(Nc1ccccc1O)c1ccc(-c2nn(Cc3ccccc3)c3ccccc23)o1` [Example 29, 1-Benzyl-3-(5-(N-(2-hydroxyphenyl)carbamoyl)-2-furyl)indazole] displayed a melting point of 196 to 197 °C.

In the case of `NC(=O)CNC(=O)c1ccc(-c2nn(Cc3ccccc3)c3ccccc23)o1` [Example 37, 1-Benzyl-3-(5-(N-(carbamoylmethyl)carbamoyl)-2-furyl)indazole], the melting point lay within 219 to 222 °C.

In the case of `CCOC(=O)c1ccc(-c2nn(-c3cc(C(F)(F)F)cc(C(F)(F)F)c3)c3ccccc23)o1` [Example 5, 3-(5-Ethoxycarbonyl-2-furyl)-1-(3,5-bis(trifluoromethyl)phenyl)indazole], the melting point is 128 to 129 °C.

Regarding `O=C(Nc1ccc2ccccc2c1)c1ccc(-c2nn(Cc3ccccc3)c3ccccc23)o1` [Example 24, 1-Benzyl-3-(5-(N-(2-naphthyl)carbamoyl)-2-furyl)indazole], the melting point came to 167 °C.

Take `O=C(OCCO)c1ccc(-c2nn(Cc3ccccc3)c3ccccc23)o1` [Example 7, 1-Benzyl-3-(5-((2-hydroxyethoxy)carbonyl)-2-furyl)indazole]: the n-fold stimulation in data set [1] (concentration 100 μM) was 5.5-fold.

As to `O=C(Nc1ccc([N+](=O)[O-])cc1)c1ccc(-c2nn(Cc3ccccc3)c3ccccc23)o1` [Example 23, 1-Benzyl-3-(5-(N-(4-nitrophenyl)carbamoyl)-2-furyl)indazole], the melting point fell in the range of 204 to 208 °C.

In the case of `O=C(NCc1ccccc1)c1ccc(-c2nn(Cc3ccccc3)c3ccccc23)o1` [Example 34, 1-Benzyl-3-(5-(N-benzylcarbamoyl)-2-furyl)indazole], the melting point fell in the range of 113 to 124 °C.

Compound `O=C(Nc1ccccc1)c1ccc(-c2nn(Cc3ccccc3)c3ccccc23)o1` [Example 21, 1-Benzyl-3-(5-(N-phenylcarbamoyl)-2-furyl)indazole] had a melting point of 138 to 143 °C. For the same compound, the n-fold stimulation in data set [1] (concentration 100 μM) is given as 3-fold.

As to `OCc1ccc(-c2nn(-c3cc(C(F)(F)F)cc(C(F)(F)F)c3)c3ccccc23)o1` [Example 6, 3-(5-Hydroxymethyl-2-furyl)-1-(3,5-bis(trifluoromethyl)phenyl)indazole], the melting point was 136 to 138 °C. Moreover, in data set [1] (concentration 10 μM), the n-fold stimulation is 3.3-fold.

Compound `O=C(O)c1ccc(-c2nn(-c3cc(C(F)(F)F)cc(C(F)(F)F)c3)c3ccccc23)o1` [Example 4, 3-(5-Carboxy-2-furyl)-1-(3,5-bis(trifluoromethyl)phenyl)indazole] yielded a melting point of 256 to 257 °C.

With `CC(C)NC(=O)c1ccc(-c2nn(Cc3ccccc3)c3ccccc23)o1` [Example 31, 1-Benzyl-3-(5-(N-isopropylcarbamoyl)-2-furyl)indazole], the melting point is 156 °C.

For the compound `O=C(Nc1nccs1)c1ccc(-c2nn(Cc3ccccc3)c3ccccc23)o1` [Example 25, 1-Benzyl-3-(5-(N-(2-thiazolyl)carbamoyl)-2-furyl)indazole], the melting point was in the range of 167 to 168 °C. Further, in data set [1] (concentration 10 μM), the n-fold stimulation was 2.8-fold.

`CN(C(=O)c1ccc(-c2nn(Cc3ccccc3)c3ccccc23)o1)c1ccccc1` [Example 27, 1-Benzyl-3-(5-(N-methyl-N-phenylcarbamoyl)-2-furyl)indazole] came in with a melting point of 190 °C.

With `CNC(=O)c1ccc(-c2nn(Cc3ccccc3)c3ccccc23)o1` [Example 40, 1-Benzyl-3-(5-(N-methylcarbamoyl)-2-furyl)indazole], the n-fold stimulation in data set [1] (concentration 100 μM) is recorded as 2.4-fold. Besides, the IC50 in data set [2] (Ring with endothelium) came out at 2400 nM; in data set [2] (Ring without endothelium) it was 200 nM.

As for `O=C(NC1CCCCC1)c1ccc(-c2nn(Cc3ccccc3)c3ccccc23)o1` [Example 33, 1-Benzyl-3-(5-(N-cyclohexylcarbamoyl)-2-furyl)indazole], the melting point is 165 °C.

In turn, `CN(C)CCNC(=O)c1ccc(-c2nn(Cc3ccccc3)c3ccccc23)o1` [Example 35, 1-Benzyl-3-(5-(N-(2-dimethylaminoethyl)carbamoyl)-2-furyl)indazole] showed a melting point of 130 °C.

The compound `OC(c1ccccc1)c1ccc(-c2nn(Cc3ccccc3)c3ccccc23)o1` (stereo not shown) [Example 43, 1-Benzyl-3-(5-(1-hydroxy-1-phenylmethyl)-2-furyl)indazole] displayed a melting point of 138 to 139 °C.

In turn, `CC(C)N(CCNC(=O)c1ccc(-c2nn(Cc3ccccc3)c3ccccc23)o1)C(C)C` [Example 36, 1-Benzyl-3-(5-(N-(2-diisopropylaminoethyl)carbamoyl)-2-furyl)indazole] registered a melting point of 119 to 127 °C.

In turn, `CCCNC(=O)c1ccc(-c2nn(Cc3ccccc3)c3ccccc23)o1` [Example 32, 1-Benzyl-3-(5-(N-(n-propyl)carbamoyl)-2-furyl)indazole] displayed a melting point of 152 °C.

As a reminder, the melting point is the temperature of the solid-liquid transition. The term IC50 denotes the concentration at which inhibition is half-maximal.
